Source: patent US8247378B2, “Homing peptide for tumor vasculature” (The Chinese University of Hong Kong, priority 2009, dated 2012)
Where no end group is shown, it is not given here. The star is where a group is joined. FITC = O=C1OC2(c3ccc(O)cc3Oc3cc(O)ccc32)c2ccc(NC(=S)*)cc21

Experiments:
[1] = test system: orthotopic colorectal cancer tissue (colon 26); test: In vivo phage targeting assay, orthotopic colorectal cancer model; set-up: species or system BALB/c mice; conditions: synthetic peptide (300 μg) co-injected with CTPSPFSHC-phage
Protocol: The mice were maintained at Chinese University of Hong Kong Animal Facility.
The model was performed as previously published with some modifications. (See Takahashi T, Morotomi M, and Nomoto K (2004). A novel mouse model of rectal cancer established by orthotopic implantation of colon cancer cells. Cancer Sci 95, 514-519). Briefly, all mice were given the tap water containing 3% dextran sulfate sodium (DSS) for 8 days to induce colitis. Mice were fasted for 18 h (DSS) after colitis induction, and then anesthetized with sodium pentobarbital. Colon 26 cells (3×10^6 cells/40 μl/mouse) were infused intrarectally with a micropipette inserted 2 cm into the anus of the mice. The anus was compressed with a noncrushing microclamp immediately after instillation of tumor cells for 30 min to prevent leakage. Successful models were used for in vivo selection at 2 weeks after implantation of tumor cells.
The assay was as described in Zhang L, Giraudo E, Hoffman J A, Hanahan D, and Ruoslahti E (2006). Lymphatic zip codes in premalignant lesions and tumors. Cancer Res 66, 5696-5706. Briefly, mice bearing tumors were anesthetized and i.v. injected with 1×10^9 pfu CTPSPFSHC-phage or control phage. After 8 minutes, mice were perfused through the heart with DMEM containing 1% BSA. The tumor and control organs were removed from each mouse and the phage was rescued and titered. […]

[2] = test system: SW1116 cells; test: In vitro cell viability assay (MTT assay), SW1116; type: cell-based, human; conditions: SW1116, 48 h, increasing concentrations
Protocol: (§1) Cell lines and cell culture: The murine colorectal cancer cell colon 26, human colon cancer cell SW1116 were cultured at 37° C. in a humidified atmosphere containing 5% CO2, in RPMI-1640 medium supplemented with 2 g/L sodium bicarbonate, 100 units/ml penicillin, […] streptomycin and 10% FBS.
(§2) In vitro cell viability assay (MTT assay): Cell viability was assessed by MTT assay, which depends on the ability of viable cells to reduce the MTT to a colored formazan product. In brief, cells (10^4 cells per well) were seeded in 96-well microculture plates overnight for attachment, and then incubated with increasing concentrations of the peptides CTPSPFSHC-GG-D(KLAKLAK)2 or CTPSPFSHC (SEQ ID NO:1) or D(KLAKLAK)2 in 100 μl of 1% FBS in DMEM for 6˜48 hours at 37° C. In the next step, MTT was added to each well, and the cells were further incubated for 3 h. The colored formazan product was determined photometrically at 570 nm in a multi-well plate reader (Bio-Rad).
(§3) TCP-1 conjugate and induction of apoptosis in colorectal cancer cells: Next, in order to examine whether the TCP-1 peptide could serve as a drug carrier into cancer cells, we synthesized a chimeric peptide of TCP-1 peptide to a proapoptotic peptide D(KLAKLAK)2, which disrupts mitochondrial membranes upon receptor-mediated cell internalization and causes programmed cell death. Increasing concentrations of TCP-1 conjugate (TCP-GG-D(KLAKLAK)2), equimolar TCP-1 or D(KLAKLAK)2 were incubated with colon 26 or SW1116 cells at 37° C. Cell viability was assessed after 6 h (colon 26) and 48 h (SW1116). The effect of TCP-1 conjugate on the cell viability was determined and compared respectively with TCP-1 or D(KLAKLAK)2 alone.

[3] = test system: orthotopic colorectal tumors; test: Organ level imaging of tumor tissues with FITC-labeled peptide; type: in vivo, mice
Protocol: Imaging of tissue was done under a blue light, by using the imaging system of KODAK Image Station 2000MM.
To determine whether FITC-labeled TCP-1 accumulated into the tumor tissues can be visualized at the organ level, tumor-bearing mice were injected intravenously with FITC-labeled TCP-1, control peptide or PBS alone. More specifically, tumor-bearing mice were i.v. injected with 500 nmol fluorescein-conjugated peptide (in 500 μl PBS). The peptide was allowed to circulate for 20 hour. The mice were killed, and various tissues were excised and examined for fluorescence. Organ imaging was done under a blue light, by using the imaging system of KODAK Image Station 2000MM.
Further, FITC-labeled TCP-1 could specifically accumulate in the tumor tissues with various volumes (diameter 2 mm, 6 mm, 8 mm tested) (FIG. 5B).

[4] = test system: colon 26 cells; test: In vitro cell viability assay (MTT assay), colon 26; type: cell-based, murine; conditions: colon 26, 6 h, increasing concentrations
Protocol: as §1, §2, §3

[5] = test system: tumor vasculature of orthotopic colorectal cancer; test: Therapeutic treatment with proapoptotic conjugate, cleaved caspase 3/CD31 staining; type: in vivo
Text: We conjugated TCP-1 with a pro-apoptotic peptide, D(KLAKLAK)2, which disrupts mitochondrial membranes upon receptor-mediated cell internalization and causes programmed cell death. This approach has been successfully employed for targeted apoptosis induction in angiogenic endothelial cells, tumor lymphatics and the vasculature of white fat. See: Zhang L, Giraudo E, Hoffman J A, Hanahan D, and Ruoslahti E (2006). Lymphatic zip codes in premalignant lesions and tumors. Cancer Res 66, 5696-5706; Kolonin M G, Saha P K, Chan L, Pasqualini R, and Arap W (2004). Reversal of obesity by targeted ablation of adipose tissue. Nat Med 10, 625-632; and, Ellerby H M, Arap W, Ellerby L M, Kain R, Andrusiak R, Rio G D, Krajewski S, Lombardo C R, Rao R, Ruoslahti E, et al. (1999). Anti-cancer activity of targeted pro-apoptotic peptides. Nat Med 5, 1032-1038. All-D enantiomer D(KLAKLAK)2 was used to avoid degradation by proteases. Ellerby H M, et al., (1999) Nat Med 5, 1032-1038.
Mice bearing orthotopic colorectal cancer were randomized into three groups. The therapeutic group was i.v. injected 260 μg/dose/mouse of the conjugated CTPSPFSHC-GG-D(KLAKLAK)2 [CDK]. Control groups received an equimolar mixture of CTPSPFSHC (SEQ ID NO:1) and D(KLAKLAK)2 [DKK], or PBS alone once every three days. Treatment was terminated 7 days after the first peptide administration as described in Kolonin M G, Saha P K, Chan L, Pasqualini R, and Arap W (2004). Reversal of obesity by targeted ablation of adipose tissue. Nat Med 10, 625-632 and Giordano R J, Landenranta J, Zhen L, Chukwueke U, Petrache I, Langley R R, Fidler I J, Pasqualini R, Tuder R M, and Arap W (2008). Targeted induction of lung endothelial cell apoptosis causes emphysema-like changes in the mouse. J Biol Chem 283, 29447-29460.
Tumors and control organs were dissected at the termination of the experiment. Histologic analysis was done to evaluate the density of tumor blood vessels. Apoptotic vascular endothelial cells were visualized by double staining with anticleaved caspase-3 and CD31 antibodies. […]

[6] = test system: blood vessels (CD31) in orthotopic colorectal tumor tissues; test: Biodistribution of FITC-conjugated peptide, colorectal cancer model; type: in vivo, mouse; conditions: 300 nmol i.v., 1 hour circulation
Protocol: (§4) To further confirm whether the selective phage homing was due to the CTPSPFSHC (SEQ ID NO:1) peptide (TCP-1), chemically synthetic FITC-conjugated TCP-1 or control peptide was intravenously injected into tumor-bearing mice to study the location of the peptide. Biodistribution of fluorescein-conjugated peptides was examined after i.v. injection of the peptide (300 nmol in 300 μl PBS) into the tail vein of a tumor-bearing mouse. The peptide was allowed to circulate for 1 hour.
Tumor and control tissues were collected and frozen sections prepared as described above in Example 1. Blood vessels were stained by CD31 antibody (secondary antibody conjugated Alexa-568). […] FITC-labeled control peptide was not found in the tumor tissues (FIG. 4A). Taken together with the immunolocalization analyses of TCP-1 phage homing, the peptide localization data confirmed that TCP-1 peptide homed specifically to blood vessels in tumor tissues but not to the vasculature of control organs.

[7] = test system: blood vessels (CD31) in gastric cancer tissues; test: Biodistribution of FITC-conjugated peptide, gastric cancer model; type: in vivo, mouse; conditions: 300 nmol i.v., 1 hour circulation
Protocol: as §4, with “gastric cancer-bearing” for “tumor-bearing”
Tumor and control tissues were collected and frozen sections prepared as described above. Blood vessels were stained by CD31 antibody (secondary antibody conjugated Alexa-568). […] FITC-labeled control peptide was not found in the tumor tissues (FIG. 10 bottom). Taken together with the immunolocalization analyses of TCP-1 phage homing, the peptide localization data confirmed that TCP-1 peptide also homed specifically to blood vessels in gastric cancer tissues but not to the vasculature of control organs.

[8] = test system: blood vessels of human colon and rectal adenocarcinoma tissues; test: Peptide binding to tissue sections from human cancer; conditions: for binding to blood vessels of cancer tissues / binding to vasculature of normal colon tissues: 10 μmol/L, 1 hour, 37° C., human biopsy sections
Protocol: To establish the ability of TCP-1 to selectively bind to the vasculature of human tumors, human biopsy samples were studied. They were double stained and images photographically overlayed to determine tissue specificity. More specifically, multiple human biopsy samples containing both colon adenocarcinoma and normal colonic tissue were snap frozen, embedded in OCT, cut into 5 μm sections, and then arrayed on slides. The slides were incubated with 10 μmol/L FITC-CTPSPFSHC (SEQ ID NO:2) or FITC-CVQTAQLLC (SEQ ID NO:3) for 1 hour at 37° C., washed three times with PBS, fixed with 4% paraformaldehyde. Blood vessels were stained with mouse anti-human CD31 monoclonal antibody and Alexa Fluor 568 goat anti-mouse IgG as above described.
The positive binding was usually found in tumor tissues at more advanced stages (in terms of lymphovascular permeation, T staging, N staging, and overall Dukes' staging).

[9] = 500 nmol i.v., 20 h after injection

Substance | effect on cell viability [2] | peptide fluorescence in vasculature of tumor tissue (histological analysis) ([3]; 20 h after injection) | effect on cell viability [4] | peptide localization in tumor tissues (CD31 co-staining) [6] | fluorescent signal in other control tissues [3, 9] | fluorescent signal in tumors, whole tissue under blue light [3, 9] | peptide localization in tumor tissues (CD31 co-staining) [7] | binding to blood vessels of cancer tissues [8] | binding to vasculature of normal colon tissues [8] | also measured
CTPSPFSHC (also: cyclic) [TCP-1] | no significant effect on cell viability | remained in the vasculature of tumor tissue | no significant effect on cell viability |  |  |  |  |  |  | effect on phage number recovered from control organs (brain, colon) [1]: not much affected; reduction of phage number recovered from the tumor tissue [1]: 95%; peptide fluorescence in control organs (histological analysis) ([3]; 20 h after injection): not in the control organs
CTPSPFSHC-GG-D(KLAKLAK)2 [TCP-GG-D(KLAKLAK)2] | inhibited the proliferation of colon 26 and SW1116 cells more efficiently than D(KLAKLAK)2 alone |  | inhibited the proliferation of colon 26 and SW1116 cells more efficiently than D(KLAKLAK)2 alone |  |  |  |  |  |  | vasculature endothelial cells expressing active caspase 3 in tumors ([5]; 260 μg/dose/mouse i.v. once every three days, 7 days, vs PBS or uncoupled mixture): obvious increase; quantification of active caspase 3: apoptotic cells in the tumor vasculature ([5]; 260 μg/dose/mouse i.v., compared to the other two groups): remarkable increased number of apoptotic cells; apoptotic vasculature in normal colon tissues and brain tissues ([5]; mouse, in vivo): hardly active caspase-3 positive cells
D(KLAKLAK)2 [reference compound] | much weaker toxic effects |  | much weaker toxic effects |  |  |  |  |  |  | 
FITC-CTPSPFSHC ({FITC}-CTPSPFSHC; cysteine pairing not given here) [FITC-labeled TCP-1, FITC-conjugated TCP-1 peptide for homing validation] |  |  |  | colocalised with CD31 | no specific fluorescent signal | strong fluorescent signal | colocalised with CD31 | bound | not to vasculature of normal colon tissues | peptide localization in control organs [6]: not detectable; smallest tumor size detected ([3]; 500 nmol i.v., 20 hour circulation): 2 mm; peptide localization in control organs [7]: not detectable; colon adenocarcinomas recognized by the peptide ([8]; positive/total patients): 5/10; rectal adenocarcinomas recognized by the peptide ([8]; positive/total patients): 6/11
FITC-CVQTAQLLC ({FITC}-CVQTAQLLC; cysteine pairing not given here) [FITC-labeled control peptide, FITC-conjugated negative control peptide, reference compound] |  | not detectable |  | not found | no specific fluorescent signal | no fluorescent signal | not found | did not interact | did not interact | 
